In patent publication US7326422B2, “Dissolvable oxides for biological applications” (DelSiTech Oy, priority 1996, dated 2008):
Counter-ions that a name gives are not always drawn.

What was measured:
[1] = Dissolution of spray dried or crushed gel particles in 250 ml SBF, USP XXII dissolution apparatus II (paddle method); assay type: physicochemical; conditions: for toremifene citrate released: after 30 hours; for slope (%/h^1/2): microspheres with 11 w-% toremifene citrate
Procedure: The solution for spray drying purpose was prepared with a mole ratio of TEOS:H2O:HCl=1.0:14.2:0.003. […] Before spray drying the pH of the sol was adjusted to pH 2.1 with hydrochloric acid. Silica sol was spray dried immediately or after 65 hours aging at room temperature. The spray drying conditions were as described in Example 6. […] About 42 mg of gel particles were placed in 250 ml of simulated body fluid (SBF) at 37° C. and pH 7.4.

[2] = In vitro dissolution test, USP XXII dissolution apparatus II (paddle method), SBF pH 7.4 with 0.5% sodium dodecyl sulphate, 37° C.; assay type: physicochemical; conditions: for Dissolution of toremifene citrate: b: silica xerogel with PEG 4,600; for Release of toremifene citrate: SLOPE: silica xerogel; for release of toremifene citrate: linear, zero-order
Procedure: Simulated body fluid (SBF, pH 7.4) containing 0.5% […] sodium dodecyl sulphate was used as dissolution medium. SBF was prepared by dissolving reagent grade NaCl (136.8 mM), NaHCO3 (4.2 mM), KCl (3.0 mM), K2HPO4×3H2O (1.0 mM), MgCl2×6H2O (1.5 mM), CaCl2×2H2O […] and Na2SO4 (0.5 mM) in distilled water. They were buffered at pH 7.4 with tris-(hydroxymethyl)aminomethane (50 mM) and hydrochloric acid.
The volume of dissolution medium was 250 ml. Agitation intensity was 50 rpm and temperature was 37° C. […]

[3] = during the first day; crushed silica xerogel particles of 500-700 μm; cited from earlier work

Which results are given for `CN(C)CCOc1ccc(/C(=C(/CCCl)c2ccccc2)c2ccccc2)cc1` [toremifene citrate]?
toremifene citrate released ([1]; microspheres (<50 μm) spray dried at pH 3.8, square root of time kinetics): 80 w-%; toremifene citrate released ([1]; microspheres from sol aged 65 hours, pH 2): 63.1 w-%; toremifene citrate released ([1]; microspheres from unaged sol, pH 2): 75.2 w-%; dissolution rate (square root of time kinetics) ([1]; crushed silica xerogel granules about 4-50 μm, PEG 4.600): 8.1 %/h^1/2; cum released toremifene (%) after 30 h ([1]; microspheres aged for 0 h (pH 2)): 75.2%; cum released toremifene (%) after 30 h ([1]; microspheres aged for 65 h (pH 2)): 63.1%; slope (%/h^1/2) ([1]; aged for 0 h (pH 2)): 12.2 %/h^1/2; slope (%/h^1/2) ([1]; aged for 65 h (pH 2)): 9.79 %/h^1/2; release slower from aged than from unaged microspheres ([1]; sol aged 65 h vs 0 h, pH 2): about 20%; release faster from 28 days aged silica xerogels than from unaged ([2]; silica xerogel monolith with PEG 4,600): about 30%; Dissolution of toremifene citrate: b ([2]; aging 0 days, dried at 11.4 RH-%): b = 0.46%/mg %/mg implant/h^1/2; Dissolution of toremifene citrate: b ([2]; aging 0 days, dried at 48.4 RH-%): b = 0.53 %/mg implant/h^1/2; Dissolution of toremifene citrate: b ([2]; aging 0 days, dried at 74.7 RH-%): b = 0.46 %/mg implant/h^1/2; Dissolution of toremifene citrate: b ([2]; aging 7 days, dried at 11.4 RH-%): b = 0.59 %/mg implant/h^1/2; Dissolution of toremifene citrate: b ([2]; aging 7 days, dried at 48.4 RH-%): b = 0.52 %/mg implant/h^1/2; Dissolution of toremifene citrate: b ([2]; aging 7 days, dried at 74.7 RH-%): b = 0.06%/mg %/mg implant/h; Dissolution of toremifene citrate: b ([2]; aging 28 days, dried at 11.4 RH-%): b = 0.67 %/mg implant/h^1/2; Dissolution of toremifene citrate: b ([2]; aging 28 days, dried at 48.4 RH-%): b = 0.74 %/mg implant/h^1/2; Release of toremifene citrate: SLOPE ([2]; H2O/TEOS = 6:1, PEG 4600): 0.094%/ %/mg × h; Release of toremifene citrate: SLOPE ([2]; H2O/TEOS = 6:1, PEG 10000): 0.922%/mg %/mg IMPLANT × h^1/2; Release of toremifene citrate: SLOPE ([2]; H2O/TEOS = 6:1, without PEG): 0.657%/mg %/mg IMPLANT × h^1/2; Release of toremifene citrate: SLOPE ([2]; H2O/TEOS = 14:1, PEG 4600): 0.052 %/mg IMPLANT × h; Release of toremifene citrate: SLOPE ([2]; H2O/TEOS = 14:1, PEG 10000): 0.061 %/mg IMPLANT × h; Release of toremifene citrate: SLOPE ([2]; H2O/TEOS = 14:1, without PEG): 0.085 %/mg IMPLANT × h; release rate (linear) ([2]; silica xerogels containing PEG 10 000): 0.1 %/mg implant/h; release rate (linear) ([2]; silica xerogels containing PEG 4600): 0.13 %/mg implant/h; release rate (linear) ([2]; silica-xerogels without polyethylene glycol): 0.16 %/mg implant/h; release of toremifene citrate ([2]; sintered silica gel (120° C.) containing 11.5 wt-% drug): 0.05 %/mg implant/h; release of toremifene citrate ([2]; sintered silica gel (120° C.) containing 34.4 wt-% drug): 0.11 %/mg implant/h; release rate (linear) ([2]; spray dried particles (60-200 μm) containing 10.2 w-% toremifene citrate, two months from preparation): 0.68 w-% per hour

For `CN[C@H](CC(C)C)C(=O)N[C@H]1C(=O)N[C@@H](CC(N)=O)C(=O)N[C@H]2C(=O)N[C@H]3C(=O)N[C@H](C(=O)N[C@H](C(=O)O)c4cc(O)cc(O)c4-c4cc3ccc4O)[C@H](O)c3ccc(c(Cl)c3)Oc3cc2cc(c3O[C@@H]2O[C@H](CO)[C@@H](O)[C@H](O)[C@H]2O[C@H]2C[C@](C)(N)[C@H](O)[C@H](C)O2)Oc2ccc(cc2Cl)[C@H]1O` [vancomycin], which incorporated vancomycin released [3] is on record?
Its incorporated vancomycin released is “about 90%”.
